Results as given in PMC9667543, “Discovery of Nanomolar-Affinity Pharmacological Chaperones Stabilizing the Oncogenic p53 Mutant Y220C” (ACS Pharmacology & Translational Science, 2022).
Like-named read-outs stand apart in the source and are kept apart here.

How the values were obtained:
p53-Y220C [1] = target: T1, p53-Y220C (Homo sapiens, UniProt P04637, M133L/N239Y/N268D/V203A/Y220C); experiment: Thermal stabilization (ΔTm) by differential scanning fluorimetry (DSF); assay type: binding; conditions: 10× SYPRO Orange; for ΔTm at 200 µM: 8 μM protein; for ΔTm (°C) [L] = 200 μM: Table 1, 8 μM protein
T1 construct: Stabilized p53-Y220C DBD (residues 94−312) was expressed and purified as previously described; 6xHis (N, cleaved yes); lipoyl domain (N, cleaved yes); TEV protease cleavage site (N, cleaved yes); made in house; host or cells: E. coli Rosetta2 plac I
Method: Differential Scanning Fluorimetry (DSF)
Protein thermal stabilization was determined using SYPRO orange (Life Technologies) as a dye that increases in fluorescence quantitatively upon binding to hydrophobic protein surfaces exposed upon thermal denaturation. Real-time melt analysis was recorded on a Bio-rad CFX Connect Real-time qPCR system. DSF measurements were performed using 8 μM protein and 10x SYPRO orange in assay buffer (25 mM KPi, 150 mM NaCl, 1 mM TCEP, pH 7.2) at a final DMSO concentration of 5% (v/v). ΔT m values were calculated as ΔT m = T m (protein + compound) − T m (protein). ΔT m values are reported as an average of three independent measurements. […]

p53-Y220C [2] = target: T1, p53-Y220C; experiment: Binding affinity by isothermal titration calorimetry (ITC); conditions: for LE (kcal/mol/NHA): ligand efficiency; for fold reduction in binding affinity compared with 4: versus unsubstituted pyrrole reference 4
Method: Isothermal Titration Calorimetry (ITC)
ITC experiments were conducted using a MicroCal iTC200 calorimeter. For forward titrations, the cell unit contained 25-50 μM protein in freshly dialyzed assay buffer (25 mM KPi, 150 mM NaCl, 1 mM TCEP, pH 7.2) with a final DMSO content of 5% (v/v), and the syringe contained 0.5-5 mM compound […]
the same buffer. Injection steps used were 2 µL (initial injection: 0.5 µL) at a rate of 2 µL/s with 120 s or 240 s spacing, and all experiments were performed at 25-30 °C. Data were analyzed using MicroCal PEAQ-ITC analysis software. […]

p53-Y220C [3] = target: T1, p53-Y220C; experiment: Binding affinity by isothermal titration calorimetry (ITC); conditions: Table 2; ITC reverse titrations, 4–15 μM ligand, 100–147 μM protein
[4] = system: p53-Y220C cancer cell lines HUH-7, BXPC-3, NUGC-3; conditions: cited from earlier work
p53-Y220C [5] = target: T1, p53-Y220C; conditions: cited from earlier work; for stabilization of p53-Y220C (DSF): in vitro
p53-Y220C [6] = target: T1, p53-Y220C; conditions: cited from earlier work
p53 = system: p53; parameters: method as in PMID 31633398; conditions: in vitro; cited from earlier work
[7] = system: p53 target genes PUMA, 9p21, BTG2, FAS, TNF, and TNFRSF10B; parameters: method as in PMID 29702446; conditions: qPCR; cited from earlier work
NUGC-3 (p53-Y220C) = system: NUGC-3 (p53-Y220C); parameters: method as in PMID 29702446; conditions: at 10 μM; cited from earlier work

Compound	ΔTm at 200 µM (p53-Y220C [1]; Table 1, [L] = 200 μM)	Kd (p53-Y220C [2]; Table 1, ITC, [prot] = 50 μM)	LE (kcal/mol/NHA) (p53-Y220C [2]; Table 1)	melting point	other results
O=C(O)c1cc(I)c(-n2ccc(C(F)(F)F)c2)c(I)c1O [compound 23]	0.5 °C	100 µM	0.26 kcal/mol/NHA		fold reduction in binding affinity compared with 4 (p53-Y220C [2]): approximately 5 fold
CCCc1c(I)cc(C(=O)O)c(O)c1I [compound 76]	0.9 °C	40 µM	0.40 kcal/mol/NHA		
O=C(O)c1cc(I)c(-n2ccc3ccccc32)c(I)c1O [compound 19]	-0.3 °C			183 to 184 °C (dec.)	ΔTm (°C) [L] = 200 μM (p53-Y220C [1]): induced virtually no stabilization
O=C(O)c1cc(I)c(-n2cccn2)c(I)c1O [compound 17]	0.7 °C			241 °C (dec.)	
CCN(CC)c1nc2c(C(=O)O)c(O)c(I)c(-n3ccc(F)c3)c2s1 [compound 87]					Kd (p53-Y220C [3]): 0.32 µM; ΔTm at 200 µM (p53-Y220C [1]; Table 2, [L] = 200 μM): 2.7 °C; LE (kcal/mol/NHA) (p53-Y220C [2]; Table 2): 0.35 kcal/mol/NHA; fold improvement in affinity compared with parent 2 (p53-Y220C [2]; versus parent MB710 (2)): approximately 4 fold
O=C(O)c1cc(I)c(N2CCCC2)c(I)c1O [compound 70]	0.3 °C			146 °C (dec.)	ΔTm (°C) [L] = 200 μM (p53-Y220C [1]): did not exhibit measurable binding nor thermal stabilization; Kd (μM) (p53-Y220C [2]; Table 1, ITC, [prot] = 50 μM): did not exhibit measurable binding nor thermal stabilization
CCc1ccn(-c2c(I)cc(C(=O)O)c(O)c2I)c1 [compound 47]	0.5 °C				ΔTm (°C) [L] = 200 μM (p53-Y220C [1]): induced virtually no stabilization
CCN(CC)c1nc2c(C(=O)O)c(O)c(I)c(-n3cc(F)c(F)c3)c2s1 [compound 88]				216 to 217 °C	Kd (p53-Y220C [3]): 0.39 µM; ΔTm at 200 µM (p53-Y220C [1]; Table 2, [L] = 200 μM): 1.8 °C; LE (kcal/mol/NHA) (p53-Y220C [2]; Table 2): 0.34 kcal/mol/NHA
O=C(O)c1cc(I)c(-n2ccc(Cl)c2)c(I)c1O [compound 20]	1.5 °C	38 µM	0.33 kcal/mol/NHA		
O=C(O)c1cc(I)c(OCCC(F)(F)F)c(I)c1O [compound 65]	0.5 °C			182 to 183 °C (dec.)	
Cc1ccc(C)n1-c1c(I)cc(C(=O)O)c(O)c1I [compound 45]	1.1 °C	77 µM	0.30 kcal/mol/NHA	215 °C (dec.)	fold reduction in binding affinity compared with 4 (p53-Y220C [2]): 3 fold
CCOc1c(I)cc(C(=O)O)c(O)c1I [compound 63]	1.5 °C	86 µM	0.37 kcal/mol/NHA	194 to 195 °C (dec.)	
O=C(O)c1cc(I)c(-n2ccnc2)c(I)c1O [compound 18]	1 °C			238 °C (dec.)	
CCc1c(I)cc(C(=O)O)c(O)c1I [compound 75]	1.5 °C	26 µM	0.45 kcal/mol/NHA	188 to 189 °C (dec.)	
CCNc1ccc(C(=O)O)c(O)c1I [compound 67]	1.5 °C			147 °C (dec.)	
Cc1cccn1-c1c(I)cc(C(=O)O)c(O)c1I [compound 43]	1.5 °C	200 µM	0.28 kcal/mol/NHA		
CC(=O)c1ccn(-c2c(I)cc(C(=O)O)c(O)c2I)c1 [compound 46]				235 to 236 °C (dec.)	
O=C(O)c1cc(I)c(-n2cc(F)c(F)c2)c(I)c1O [compound 22]	1.9 °C	25 µM	0.33 kcal/mol/NHA	217 to 218 °C (dec.)	
O=C(O)c1cc(I)c(-n2ccc(F)c2)c(I)c1O [compound 21]	1.9 °C	15 µM	0.37 kcal/mol/NHA	270 to 271 °C (dec.)	
CCn1c2ccc(CNC)cc2c2ccc(-c3cc(C)cs3)cc21 [compound 1]					selective cell viability reduction ([4]; HUH-7 and NUGC-3 (p53-Y220C) versus HUH7-F1 (p53-Y220C KO) and NUGC-4 (p53-WT), narrow concentration range): induces selective cell viability reduction; thermal shift (ΔTm) to the protein melting temperature (p53-Y220C [5]; 250 μM [ligand]): over 3 °C; Kd (p53-Y220C [6]; binding to the Y220C pocket): 2 µM; p53 aggregation (p53): reduces p53 aggregation in vitro
CCCOc1c(I)cc(C(=O)O)c(O)c1I [compound 64]	1.1 °C	100 µM	0.34 kcal/mol/NHA		
CN(C)Cc1ccc2c(c1)c1ccccc1n2CC(F)(F)F [compound 6]					Kd (p53-Y220C [6]; supplementary CSV, previously reported compounds, no reference printed in the file): 37 µM
CCN(CC)c1nc2c(C(=O)O)c(O)c(I)c(-n3cccc3)c2s1 [compound 2, reference compound]					stabilization of p53-Y220C (DSF) (p53-Y220C [5]): stabilize p53-Y220C in vitro in a concentration-dependent manner; Kd (p53-Y220C [3]): 1.2 µM; ΔTm at 200 µM (p53-Y220C [1]; Table 2, [L] = 200 μM): 2.3 °C; LE (kcal/mol/NHA) (p53-Y220C [2]; Table 2): 0.34 kcal/mol/NHA
COc1c(I)cc(C(=O)O)c(O)c1I [compound 62]	1.5 °C	120 µM	0.38 kcal/mol/NHA	197 to 198 °C (dec.)	
CCNC(=O)c1c(O)c(I)c(-n2cccc2)c2sc(N(CC)CC)nc12 [compound 3]					selective cell viability reduction ([4]; HUH-7, BXPC-3, NUGC-3 versus NUGC-4, SW1088, WI38, HUH-7 p53-Y220C KO): induces selective cell viability reduction; stabilization of p53-Y220C (DSF) (p53-Y220C [5]): stabilize p53-Y220C in vitro in a concentration-dependent manner; transcription of p53 target genes [7]: enhanced and selective transcription of p53 target genes; NUGC-3 viability (NUGC-3 (p53-Y220C)): < 10%; Kd (p53-Y220C [6]; literature value, ITC): 4 µM
O=C(O)c1cc(I)c(OCC(F)(F)F)c(I)c1O [compound 24]	0.3 °C				
CCN(CC)c1nc2c(C(=O)O)c(O)c(I)c(-n3ccc(Cl)c3)c2s1 [compound 89]					Kd (p53-Y220C [3]): 1.9 µM; ΔTm at 200 µM (p53-Y220C [1]; Table 2, [L] = 200 μM): 2 °C; LE (kcal/mol/NHA) (p53-Y220C [2]; Table 2): 0.31 kcal/mol/NHA; fold weaker binding affinity compared with MB710 (2) (p53-Y220C [2]; versus parent 2): ca. 2 fold
Cc1c(I)cc(C(=O)O)c(O)c1I [compound 74]	0.3 °C				
Cc1ccn(-c2c(I)cc(C(=O)O)c(O)c2I)c1 [compound 44]	1.5 °C	160 µM	0.29 kcal/mol/NHA		
O=C(O)c1cc(I)c(-n2cccc2)c(I)c1O [compound 4]	1.8 °C	22 µM	0.37 kcal/mol/NHA	199 to 200 °C (dec.)	
